From the supplement of paper PMC11919725

Experiments:
Jurkat [1] = test: cytotoxicity relative to DMSO, 18 h (ratio); higher = less cell death (drugs called cytotoxic fall below 1)
Summary of the method: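 Jurkat or primary CD4+/CD8+ T cells (naive, or activated 48 h with CD3/CD28 Dynabeads) were treated 18 h with compound at 1 nM–10 µM (log10 steps) at 37 °C, 5% CO2. Then 100 µl of suspension went into 96-well plates with IncuCyte Cytotox Dye (250 nM final). Cytotoxicity came from IncuCyte fluorescence imaging (×10, five images per well, hourly over 3 h). Signals were corrected for confluency, then normalised to mean DMSO controls.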

Jurkat [2] = test: metabolic activity relative to DMSO, 18 h (ratio); higher = more viable
Summary of the method: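 Compound was added at 1 nM–10 µM (log10 steps) for 18 h at 37 °C, 5% CO2 to Jurkat cells or to primary CD4+/CD8+ T cells that were naive or had been activated 48 h with CD3/CD28 Dynabeads. After alamarBlue was added to 10% v/v final, fluorescence (excitation 544 nm, emission 584 nm) was measured 3.5 h later. Values for metabolic activity are normalised to the mean of vehicle controls.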

Jurkat [3] = test: confluency relative to DMSO, 18 h (ratio); higher = more viable
Summary of the method: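 Cells (Jurkat, or primary CD4+/CD8+ T cells either naive or stimulated 48 h with CD3/CD28 Dynabeads) were incubated with compound for 18 h at 37 °C, 5% CO2, across 1 nM–10 µM in log10 steps. Each 100 µl suspension was then placed in a 96-well plate with IncuCyte Cytotox Dye and alamarBlue and imaged by phase contrast at ×10, five images per well, hourly over 3 h. Confluency values come from the Basic Analyzer and are relative to the mean of the control wells.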

SMILES | cytotoxicity (Jurkat [1]; 1 nM) | cytotoxicity (Jurkat [1]; 10 nM) | cytotoxicity (Jurkat [1]; 100 nM) | cytotoxicity (Jurkat [1]; 1000 nM) | cytotoxicity (Jurkat [1]; 10000 nM) | metabolic activity (Jurkat [2]; 1 nM) | metabolic activity (Jurkat [2]; 10 nM) | metabolic activity (Jurkat [2]; 100 nM) | metabolic activity (Jurkat [2]; 1000 nM) | metabolic activity (Jurkat [2]; 10000 nM) | confluency (Jurkat [3]; 1 nM) | confluency (Jurkat [3]; 10 nM) | confluency (Jurkat [3]; 100 nM) | confluency (Jurkat [3]; 1000 nM) | confluency (Jurkat [3]; 10000 nM)
CCC(C)(Nc1ccnc(-c2c[nH]c3ncccc23)n1)C(=O)NCC(F)(F)F (stereo not given) [Decernotinib] | 1.1 | 1.09 | 1.01 | 1.04 | 1.03 | 1.08 | 1.08 | 1.02 | 1.05 | 1.07 | 1.03 | 1.03 | 0.996 | 0.993 | 0.96
Nc1ncn(C2CC(O)C(CO)O2)c(=O)n1 (stereo not given) [Decitabine] | 0.966 | 0.964 | 0.922 | 0.869 | 0.862 | 1.05 | 1.04 | 1.02 | 0.948 | 0.867 | 1.02 | 1.01 | 0.986 | 0.972 | 0.939
CCc1cnn2c(NCc3ccc[n+]([O-])c3)cc(N3CCCCC3CCO)nc12 (stereo not given) [Dinaciclib] | 0.926 | 1.03 | 0.821 | 0.989 | 1.09 | 0.162 | 0.147 | 0.13 | 0.139 | 0.128 | 0.988 | 1.02 | 0.864 | 0.871 | 1.16
Cn1cc(-c2ccc(S(=O)(=O)n3ccc(C=CC(=O)Nc4ccccc4N)c3)cc2)cn1 [Domatinostat] | 0.906 | 0.925 | 0.886 | 1.06 | 0.636 | 1.1 | 1.12 | 1.03 | 0.922 | 0.704 | 0.879 | 0.91 | 0.901 | 1.03 | 0.63
COc1cccc2c1C(=O)c1c(O)c3c(c(O)c1C2=O)CC(O)(C(=O)CO)CC3OC1CC(N)C(O)C(C)O1 (stereo not given) [Doxorubicin] | 1.05 | 0.983 | 0.967 | 0.871 | 0.618 | 1.09 | 0.901 | 0.89 | 0.823 | 0.342 | 1.04 | 0.98 | 0.995 | 0.993 | 1.07
Nc1ccccc1NC(=O)c1ccc(CNC(=O)OCc2cccnc2)cc1 [Entinostat] | 1.09 | 0.937 | 0.912 | 0.891 | 1.01 | 0.904 | 0.811 | 0.957 | 0.923 | 0.727 | 1.04 | 0.967 | 0.939 | 0.906 | 0.947
COC1CC2CCC(C)C(O)(O2)C(=O)C(=O)N2CCCCC2C(=O)OC(C(C)CC2CCC(OCCO)C(OC)C2)CC(=O)C(C)C=C(C)C(O)C(OC)C(=O)C(C)CC(C)C=CC=CC=C1C (stereo not given) [Everolimus] | 0.853 | 0.843 | 0.947 | 0.996 | 0.893 | 0.773 | 0.935 | 0.975 | 0.958 | 0.981 | 0.88 | 0.877 | 0.969 | 1.06 | 0.906
COc1ccc(-c2nc(N3CCOCC3)c3sc(CN(C)c4ncc(C(=O)NO)cn4)cc3n2)cn1 [Fimepinostat] | 0.792 | 1.09 | 1.05 | 1.12 | 0.892 | 0.731 | 0.914 | 0.796 | 0.772 | 0.42 | 0.995 | 1.12 | 1.2 | 1.31 | 1.23
COc1cc(Nc2ncc(F)c(Nc3ccc4c(n3)N(COP(=O)(O)O)C(=O)C(C)(C)O4)n2)cc(OC)c1OC [Fostamatinib] | 1.06 | 1.05 | 0.951 | 0.893 | 0.783 | 1.21 | 1.23 | 1.1 | 1.01 | 0.925 | 1 | 0.995 | 0.961 | 0.911 | 0.821
CCNC(=O)Nc1ccc(-c2nc3c(c(N4CCOCC4C)n2)CCN(C2COC2)C3)cc1 (stereo not given) [GDC-0349] | 0.991 | 0.972 | 0.947 | 0.887 | 0.78 | 0.925 | 0.919 | 0.886 | 0.841 | 0.798 | 0.992 | 0.981 | 0.955 | 0.932 | 0.873
COC1=C2CC(C)CC(OC)C(O)C(C)C=C(C)C(OC(N)=O)C(OC)C=CC=C(C)C(=O)NC(=CC1=O)C2=O (stereo not given) [Geldanamycin] | 0.946 | 0.982 | 0.745 | 0.815 | 0.798 | 0.985 | 0.95 | 0.767 | 0.567 | 0.7 | 0.963 | 1.02 | 0.786 | 0.971 | 0.975
Nc1ccn(C2OC(CO)C(O)C2(F)F)c(=O)n1 (stereo not given) [Gemcitabine] | 0.927 | 1.01 | 0.921 | 0.651 | 0.602 | 1 | 1.07 | 0.61 | 0.712 | 0.724 | 0.916 | 0.993 | 1.04 | 0.732 | 0.69
CCN(CC)Cc1ccc2cc(COC(=O)Nc3ccc(C(=O)NO)cc3)ccc2c1 [Givinostat] | 1.15 | 1.01 | 1.06 | 1.03 | 1.04 | 0.902 | 0.981 | 0.969 | 0.845 | 0.762 | 1.05 | 0.98 | 1.05 | 1.18 | 1.2
COc1ccc(S(=O)(=O)N(C(C)=O)c2ccccc2C=Cc2cc[n+]([O-])cc2)cc1 [HMN-214] | 1.11 | 0.94 | 0.954 | 0.982 | 0.602 | 1.11 | 0.973 | 0.813 | 0.779 | 0.503 | 0.983 | 0.99 | 0.993 | 0.979 | 0.694
NC1CCC(NC2CC2c2ccccc2)CC1 (stereo not given) [Iadademstat] | 0.988 | 0.933 | 0.928 | 1.14 | 1.15 | 0.93 | 0.857 | 0.737 | 1.09 | 0.95 | 1.01 | 0.967 | 1.02 | 1.03 | 1.05
